1 molecule from ChEMBL document CHEMBL1142083, “Reversible inhibition of mitochondrial protein synthesis during linezolid-related hyperlactatemia” (2007) can be followed below.

In test [1] the test system is PBMC. Briefly: Increase in Cytochrome C oxidase 2 mitochondrial RNA transcripts in PBMCs from patient on a long-term schedule of the drug with hyperlactatemia relative to control. The format is functional, Homo sapiens.
Test [2] deals with PBMC. Nature of the test: Effect on mitochondrial DNA level in PBMCs from patient on a long-term schedule of the drug with hyperlactatemia relative to control. The format is functional, Homo sapiens.
The test system of test [3] is PBMC. Briefly: Decrease in mitochondrial Cytochrome C oxidase activity in PBMCs from patient on a long-term schedule of the drug with hyperlactatemia relative to control. The arrangement: scale not given: the % may be the effect or the level left.
In test [4] the test system is PBMC. Nature of the test: Effect on mitochondrial mass in PBMCs from patient during hyperlactemic phase by citrate synthase method relative to control. The format is functional, Homo sapiens.
Test [5] has as its system PBMC. Nature of the test: Effect on mitochondrial mass in PBMCs from patient during hyperlactemic phase by V-DAC method relative to control. The test is classed as functional, Homo sapiens.
Test [6] deals with PBMC. Briefly: Decrease in mitochondrial Cytochrome C oxidase 2 protein expression in PBMCs from patient on a long-term schedule of the drug with hyperlactatemia relative to control. The arrangement: scale not given: the % may be the effect or the level left. The test is classed as functional, Homo sapiens.

Take `CC(=O)NC[C@H]1CN(c2ccc(N3CCOCC3)c(F)c2)C(=O)O1` [LINEZOLID]: the Activity with PBMC [1] was determined as 297%; with PBMC [2], 82%; with PBMC [3], 51%; with PBMC [4] it was 59%; in the test with PBMC [5], 60%; with PBMC [6], 16%.
